This is an account of results in publication PMC8482771 (ACS Omega, 2021).

Common to all, as to type: cell-based
Data set [1] has as its target T1, h-P2X7R (Homo sapiens, UniProt Q99572).
T1 sequence (Q99572 1-595): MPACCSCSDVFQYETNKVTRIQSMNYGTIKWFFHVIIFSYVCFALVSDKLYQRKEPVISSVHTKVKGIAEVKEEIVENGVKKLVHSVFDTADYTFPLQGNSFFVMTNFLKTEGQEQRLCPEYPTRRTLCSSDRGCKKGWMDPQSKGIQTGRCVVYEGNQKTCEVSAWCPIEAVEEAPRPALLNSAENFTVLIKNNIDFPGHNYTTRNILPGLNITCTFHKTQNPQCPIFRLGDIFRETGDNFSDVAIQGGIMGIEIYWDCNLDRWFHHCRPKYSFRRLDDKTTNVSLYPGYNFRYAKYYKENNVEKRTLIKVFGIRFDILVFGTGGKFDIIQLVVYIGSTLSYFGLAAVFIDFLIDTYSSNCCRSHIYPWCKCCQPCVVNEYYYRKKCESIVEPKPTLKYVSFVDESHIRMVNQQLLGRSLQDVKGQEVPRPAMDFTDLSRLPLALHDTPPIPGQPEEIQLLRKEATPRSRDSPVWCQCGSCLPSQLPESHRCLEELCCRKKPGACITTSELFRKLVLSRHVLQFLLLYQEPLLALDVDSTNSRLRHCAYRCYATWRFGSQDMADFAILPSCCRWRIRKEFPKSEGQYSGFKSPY

A further data set in a line: Cytotoxicity assay. Conditions: human, nontransfected 1321N1 astrocytoma cells.
The target of data set [2] is T2, h-P2X2R (Homo sapiens, UniProt Q9UBL9).
T2 sequence (Q9UBL9 1-471): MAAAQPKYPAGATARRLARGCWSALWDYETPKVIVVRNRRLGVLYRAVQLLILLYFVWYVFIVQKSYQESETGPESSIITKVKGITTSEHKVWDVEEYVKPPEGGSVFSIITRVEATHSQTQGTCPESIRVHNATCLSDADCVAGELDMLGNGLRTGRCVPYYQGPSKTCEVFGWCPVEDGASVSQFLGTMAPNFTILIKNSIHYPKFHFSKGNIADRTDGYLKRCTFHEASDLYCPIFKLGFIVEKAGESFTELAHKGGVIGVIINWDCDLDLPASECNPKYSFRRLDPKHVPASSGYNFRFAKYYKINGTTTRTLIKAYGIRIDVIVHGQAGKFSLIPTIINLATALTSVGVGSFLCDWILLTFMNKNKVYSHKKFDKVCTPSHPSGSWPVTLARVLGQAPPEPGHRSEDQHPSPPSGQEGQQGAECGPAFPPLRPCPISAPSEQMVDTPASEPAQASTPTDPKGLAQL
Briefly: Ca2+ influx assay.

Data set [3] addresses T3, h-P2X4R (Homo sapiens, UniProt Q99571).
T3 sequence (Q99571 1-388): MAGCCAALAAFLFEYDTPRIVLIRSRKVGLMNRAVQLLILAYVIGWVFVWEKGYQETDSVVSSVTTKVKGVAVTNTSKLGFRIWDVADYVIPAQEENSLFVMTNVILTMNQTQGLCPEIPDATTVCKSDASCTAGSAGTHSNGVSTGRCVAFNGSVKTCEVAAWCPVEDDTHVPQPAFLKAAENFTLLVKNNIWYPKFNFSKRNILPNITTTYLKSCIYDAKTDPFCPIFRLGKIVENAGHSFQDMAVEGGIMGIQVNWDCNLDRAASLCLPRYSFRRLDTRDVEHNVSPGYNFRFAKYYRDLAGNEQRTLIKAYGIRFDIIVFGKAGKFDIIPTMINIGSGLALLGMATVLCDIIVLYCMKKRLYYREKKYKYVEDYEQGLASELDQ
Nature of the data set: Ca2+ influx assay.

The next data set concerns the target h-P2X5 receptor (Homo sapiens, UniProt Q93086). Nature of the data set: Ca2+ influx assay. Conditions: for inhibition at 50 µM: 1321-N1, read-out: h-P2X5 % inhibition.
The target of data set [4] is T1, h-P2X7R. Briefly: Ca2+ influx assay.
In data set [5] the target is T2, h-P2X2R. Nature of the data set: Mode of inhibition: ATP dose-response curve without and with inhibitor, h-P2X2R.
Data set [6] has as its target T3, h-P2X4R. Nature of the data set: Mode of inhibition: ATP dose-response curve without and with inhibitor, h-P2X4R.

Sequence of h-P2X5 receptor (Q93086 whole entry): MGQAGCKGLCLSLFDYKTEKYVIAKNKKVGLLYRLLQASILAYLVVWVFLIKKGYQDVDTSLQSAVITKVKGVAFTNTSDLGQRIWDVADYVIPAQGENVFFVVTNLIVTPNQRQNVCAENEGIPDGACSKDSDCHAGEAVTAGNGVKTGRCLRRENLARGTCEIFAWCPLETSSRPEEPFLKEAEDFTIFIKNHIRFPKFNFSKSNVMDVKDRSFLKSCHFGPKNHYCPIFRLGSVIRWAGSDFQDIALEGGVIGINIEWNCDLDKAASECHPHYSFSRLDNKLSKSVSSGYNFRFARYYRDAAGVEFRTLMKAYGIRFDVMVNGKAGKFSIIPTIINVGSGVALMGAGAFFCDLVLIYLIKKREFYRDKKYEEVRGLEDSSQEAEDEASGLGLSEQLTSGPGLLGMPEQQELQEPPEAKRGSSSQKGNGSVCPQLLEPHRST

Turning to “2′/3′-O-(4-benzoylbenzoyl)adenosine-5′-triphosphate [BzATP, reference compound]”, at h-P2X7R [1] (read-out: EC50 of BzATP-induced response, BzATP without inhibitor), the EC50 came to 5500 nM.
`CC(=NNC(=O)c1ccccc1NS(C)(=O)=O)c1ccc(N)cc1` [6h, N-(2-(2-(1-(4-Aminophenyl)ethylidene)hydrazinecarbonyl)phenyl)methanesulfonamide] came in with a cytotoxicity at 24 h, 50 µM in the data set “Cytotoxicity assay” of 18.5 ± 1.22%. In addition, the IC50 was 320 ± 10 nM against h-P2X2R [2], more than 50000 nM against h-P2X4R [3], more than 50000 nM on h-P2X5 receptor and 1100 ± 210 nM on h-P2X7R [4]. Besides, the inhibition at 50 µM on h-P2X4R [3] (1321-N1, read-out: h-P2X4 % inhibition) is 34%; on h-P2X5 receptor it was 10%. Besides, the “mechanism of receptor inhibition” value on h-P2X2R [5] (h-P2X2) and on h-P2X7R [1] was “negative allosteric modulator” in each case.
In the data set “Cytotoxicity assay”, `CC(=NNC(=O)c1ccccc1NS(C)(=O)=O)c1sccc1Cl` [7e, N-(2-(2-(1-(3-Chlorothiophen-2-yl)ethylidene)hydrazinecarbonyl)phenyl)methanesulfonamide] showed a cytotoxicity at 24 h, 50 µM of 8.33 ± 0.8%. The IC50 against h-P2X2R [2] was 2170 ± 20 nM; against h-P2X4R [3], 1610 ± 40 nM; against h-P2X5 receptor, more than 50000 nM; against h-P2X7R [4], 1700 ± 90 nM. Moreover, the inhibition at 50 µM on h-P2X5 receptor is 27%. At h-P2X4R [6] (h-P2X4R), the “mechanism of receptor inhibition” value is “negative allosteric modulator”.
Turning to `Nc1ncnc2c1ncn2[C@@H]1O[C@H](COP(=O)(O)OP(=O)(O)OP(=O)(O)O)[C@@H](O)[C@H]1O` [ATP, adenosine triphosphate, reference compound], the EC50 was 1480 nM at h-P2X2R [2]; 9290 nM on h-P2X4R [3]; 10600 nM at h-P2X5 receptor; 1080 nM on h-P2X2R [5]; 2590 nM on h-P2X4R [6].
